Measured values published in publication PMC6979384, “Characterization of the plant homeodomain (PHD) reader family for their histone tail interactions” (Epigenetics & Chromatin, 2020).

Experiments:
Assay in all cases: Histone peptide microarray
Type in all cases: binding, human
Settings in all cases: sheet "Array Heatmap"
PHRF1 (RP) = system: PHRF1 (RP)
Source text: (§1) To more comprehensively define the histone interactions of the 31 PHD readers identified from the domain microarray analyses, we probed each on an alternate microarray platform containing a library of 293 synthetic histone peptides with single or combinatorial PTMs (Additional file 2: Figure S4 and Additional file 3: Table S2).
(§2) The 31 GST-tagged PHD readers identified in the PHD finger domain array were expressed and purified as previously. Histone peptide arrays and peptide pulldown assays were conducted as recently described (specifically, the optimized protocol from Petell et al. for the former).
(§3) Supplementary file 13072_2020_328_MOESM3_ESM.xlsx: Additional file 3: Table S2. […] Excel Tab Peptide List is a compiled list of the entire 293 histone peptide library with amino acid sequence ranges. […] Each number corresponds to the peptide number designated in Peptide List. Excel Tab Average Signals is a compiled set of binding data: chromatin reader at 0.5 μM vs. entire 293 peptide library. Data is presented as the average and standard deviation of 4 replicates. The average signals are colored to indicate signal intensity with green being strong and white being weak/low. […] Key: red= stronger relative binding; blue = weaker relative binding. Excel Tab Array info summary is a table summarizing the domains, sequence coverage, array signal range, and noise for each of the GST-tagged readers assayed on the peptide microarrays.

ING4 = system: ING4
Source text: as §1, §2, §3

KDM4C (TTP) = system: KDM4C (TTP)
Source text: as §1, §2, §3

ING2 = system: ING2
Source text: as §1, §2, §3

BAZ2B = system: BAZ2B
Source text: as §1, §2, §3

RAG2 = system: RAG2
Source text: as §1, §2, §3

CHD4 (PPCC) = system: CHD4 (PPCC)
Source text: as §1, §2, §3

KDM5A (3) = system: KDM5A (3)
Source text: as §1, §2, §3

MORC3 (CW) = system: MORC3 (CW)
Source text: as §1, §2, §3

DIDO1 = system: DIDO1
Source text: as §1, §2, §3

PHF21A = system: PHF21A
Source text: as §1, §2, §3

PHF13 = system: PHF13
Source text: as §1, §2, §3

CHD5 (PCC) = system: CHD5 (PCC)
Source text: as §1, §2, §3

KDM5B (3) = system: KDM5B (3)
Source text: as §1, §2, §3

DPF2 (PPC2W2) = system: DPF2 (PPC2W2)
Source text: as §1, §2, §3

ING3 = system: ING3
Source text: as §1, §2, §3

CHD5 (PPCC) = system: CHD5 (PPCC)
Source text: as §1, §2, §3

MLL5 = system: MLL5
Source text: as §1, §2, §3

ING1 = system: ING1
Source text: as §1, §2, §3

KDM7A = system: KDM7A
Source text: as §1, §2, §3

ING5 = system: ING5
Source text: as §1, §2, §3

PHF8 = system: PHF8
Source text: as §1, §2, §3

PHF23 = system: PHF23
Source text: as §1, §2, §3

TAF3 = system: TAF3
Source text: as §1, §2, §3

TRIM66 (PB) = system: TRIM66 (PB)
Source text: as §1, §2, §3

AIRE (PP) = system: AIRE (PP)
Source text: as §1, §2, §3

BPTF (PB) = system: BPTF (PB)
Source text: as §1, §2, §3

KDM5B (1) = system: KDM5B (1)
Source text: as §1, §2, §3

KDM5A (1) = system: KDM5A (1)
Source text: as §1, §2, §3

SP140L = system: SP140L
Source text: as §1, §2, §3

PHF2 = system: PHF2
Source text: as §1, §2, §3

## H3.3K27me2: H3.3 15-34 [Peptide H3.3K27me2]
PHRF1 (RP); GST-tagged PHRF1 (RP), arrays performed twice, total replicate number n = 4
  Array Heatmap signal, PHRF1 (RP): 0.4654
ING4; GST-tagged ING4, arrays performed twice, total replicate number n = 4
  Array Heatmap signal, ING4: 0.4872
KDM4C (TTP); GST-tagged KDM4C (TTP), arrays performed twice, total replicate number n = 4
  Array Heatmap signal, KDM4C (TTP): 0.5464
ING2; GST-tagged ING2, arrays performed twice, total replicate number n = 4
  Array Heatmap signal, ING2: 0.5964
BAZ2B; GST-tagged BAZ2B, arrays performed twice, total replicate number n = 4
  Array Heatmap signal, BAZ2B: 0.4966
RAG2; GST-tagged RAG2, arrays performed twice, total replicate number n = 4
  Array Heatmap signal, RAG2: 0.2646
CHD4 (PPCC); GST-tagged CHD4 (PPCC), arrays performed twice, total replicate number n = 4
  Array Heatmap signal, CHD4 (PPCC): 0.613
KDM5A (3); GST-tagged KDM5A (3), arrays performed twice, total replicate number n = 4
  Array Heatmap signal, KDM5A (3): 0.4717
MORC3 (CW); GST-tagged MORC3 (CW), arrays performed twice, total replicate number n = 4
  Array Heatmap signal, MORC3 (CW): 0.404
DIDO1; GST-tagged DIDO1, arrays performed twice, total replicate number n = 4
  Array Heatmap signal, DIDO1: 0.6851
PHF21A; GST-tagged PHF21A, arrays performed twice, total replicate number n = 4
  Array Heatmap signal, PHF21A: 0.5329
PHF13; GST-tagged PHF13, arrays performed twice, total replicate number n = 4
  Array Heatmap signal, PHF13: 0.6291
CHD5 (PCC); GST-tagged CHD5 (PCC), arrays performed twice, total replicate number n = 4
  Array Heatmap signal, CHD5 (PCC): 0.8298
KDM5B (3); GST-tagged KDM5B (3), arrays performed twice, total replicate number n = 4
  Array Heatmap signal, KDM5B (3): 0.5196
DPF2 (PPC2W2); GST-tagged DPF2 (PPC2W2), arrays performed twice, total replicate number n = 4
  Array Heatmap signal, DPF2 (PPC2W2): 0.6895
ING3; GST-tagged ING3, arrays performed twice, total replicate number n = 4
  Array Heatmap signal, ING3: 0.5037
CHD5 (PPCC); GST-tagged CHD5 (PPCC), arrays performed twice, total replicate number n = 4
  Array Heatmap signal, CHD5 (PPCC): 0.607
MLL5; GST-tagged MLL5, arrays performed twice, total replicate number n = 4
  Array Heatmap signal, MLL5: 0.5397
ING1; GST-tagged ING1, arrays performed twice, total replicate number n = 4
  Array Heatmap signal, ING1: 0.5537
KDM7A; GST-tagged KDM7A, arrays performed twice, total replicate number n = 4
  Array Heatmap signal, KDM7A: 0.388
ING5; GST-tagged ING5, arrays performed twice, total replicate number n = 4
  Array Heatmap signal, ING5: 0.3925
PHF8; GST-tagged PHF8, arrays performed twice, total replicate number n = 4
  Array Heatmap signal, PHF8: 0.3923
PHF23; GST-tagged PHF23, arrays performed twice, total replicate number n = 4
  Array Heatmap signal, PHF23: 0.5513
TAF3; GST-tagged TAF3, arrays performed twice, total replicate number n = 4
  Array Heatmap signal, TAF3: 0.2764
TRIM66 (PB); GST-tagged TRIM66 (PB), arrays performed twice, total replicate number n = 4
  Array Heatmap signal, TRIM66 (PB): 0.5739
AIRE (PP); GST-tagged AIRE (PP), arrays performed twice, total replicate number n = 4
  Array Heatmap signal, AIRE (PP): 0.5737
BPTF (PB); GST-tagged BPTF (PB), arrays performed twice, total replicate number n = 4
  Array Heatmap signal, BPTF (PB): 0.3599
KDM5B (1); GST-tagged KDM5B (1), arrays performed twice, total replicate number n = 4
  Array Heatmap signal, KDM5B (1): 0.6552
KDM5A (1); GST-tagged KDM5A (1), arrays performed twice, total replicate number n = 4
  Array Heatmap signal, KDM5A (1): 0.5224
SP140L; GST-tagged SP140L, arrays performed twice, total replicate number n = 4
  Array Heatmap signal, SP140L: 0.3774
PHF2; GST-tagged PHF2, arrays performed twice, total replicate number n = 4
  Array Heatmap signal, PHF2: 0.504

## H2BK15ac: H2B 1-24 [Peptide H2BK15ac]
PHRF1 (RP); PHRF1 (RP), each array performed twice, total n = 4
  Array Heatmap value (peptide array signal): 0.4303
ING4; ING4, each array performed twice, total n = 4
  Array Heatmap value (peptide array signal): 0.465
KDM4C (TTP); KDM4C (TTP), each array performed twice, total n = 4
  Array Heatmap value (peptide array signal): 0.4832
ING2; ING2, each array performed twice, total n = 4
  Array Heatmap value (peptide array signal): 0.6208
BAZ2B; BAZ2B, each array performed twice, total n = 4
  Array Heatmap value (peptide array signal): 0.4604
RAG2; RAG2, each array performed twice, total n = 4
  Array Heatmap value (peptide array signal): 0.2507
CHD4 (PPCC); CHD4 (PPCC), each array performed twice, total n = 4
  Array Heatmap value (peptide array signal): 0.606
KDM5A (3); KDM5A (3), each array performed twice, total n = 4
  Array Heatmap value (peptide array signal): 0.4161
MORC3 (CW); MORC3 (CW), each array performed twice, total n = 4
  Array Heatmap value (peptide array signal): 0.3521
DIDO1; DIDO1, each array performed twice, total n = 4
  Array Heatmap value (peptide array signal): 0.6647
PHF21A; PHF21A, each array performed twice, total n = 4
  Array Heatmap value (peptide array signal): 0.4803
PHF13; PHF13, each array performed twice, total n = 4
  Array Heatmap value (peptide array signal): 0.6426
CHD5 (PCC); CHD5 (PCC), each array performed twice, total n = 4
  Array Heatmap value (peptide array signal): 0.7574
KDM5B (3); KDM5B (3), each array performed twice, total n = 4
  Array Heatmap value (peptide array signal): 0.457
DPF2 (PPC2W2); DPF2 (PPC2W2), each array performed twice, total n = 4
  Array Heatmap value (peptide array signal): 0.6359
ING3; ING3, each array performed twice, total n = 4
  Array Heatmap value (peptide array signal): 0.4826
CHD5 (PPCC); CHD5 (PPCC), each array performed twice, total n = 4
  Array Heatmap value (peptide array signal): 0.5537
MLL5; MLL5, each array performed twice, total n = 4
  Array Heatmap value (peptide array signal): 0.5596
ING1; ING1, each array performed twice, total n = 4
  Array Heatmap value (peptide array signal): 0.5436
KDM7A; KDM7A, each array performed twice, total n = 4
  Array Heatmap value (peptide array signal): 0.3558
ING5; ING5, each array performed twice, total n = 4
  Array Heatmap value (peptide array signal): 0.3652
PHF8; PHF8, each array performed twice, total n = 4
  Array Heatmap value (peptide array signal): 0.3468
PHF23; PHF23, each array performed twice, total n = 4
  Array Heatmap value (peptide array signal): 0.5678
TAF3; TAF3, each array performed twice, total n = 4
  Array Heatmap value (peptide array signal): 0.2676
TRIM66 (PB); TRIM66 (PB), each array performed twice, total n = 4
  Array Heatmap value (peptide array signal): 0.5831
AIRE (PP); AIRE (PP), each array performed twice, total n = 4
  Array Heatmap value (peptide array signal): 0.4221
BPTF (PB); BPTF (PB), each array performed twice, total n = 4
  Array Heatmap value (peptide array signal): 0.3575
KDM5B (1); KDM5B (1), each array performed twice, total n = 4
  Array Heatmap value (peptide array signal): 0.6467
KDM5A (1); KDM5A (1), each array performed twice, total n = 4
  Array Heatmap value (peptide array signal): 0.465
SP140L; SP140L, each array performed twice, total n = 4
  Array Heatmap value (peptide array signal): 0.361
PHF2; PHF2, each array performed twice, total n = 4
  Array Heatmap value (peptide array signal): 0.5204
